According to ChEMBL document CHEMBL4385620, “Inhibition of polypeptide N-acetyl-α-galactosaminyltransferases is an underlying mechanism of dietary polyphenols preventing colorectal tumorigenesis” (Bioorg Med Chem, 2019):
Active and inactive are the calls of the source. The calls are words filed in the database; no cut-off is given here.

How the values were obtained:
[1] = system: HT-29; test: Antimigratory activity in human HT-29 cells at 40 uM incubated for 48 hrs by crystal violet staining based method; type: functional, cell-based
[2] = system: HT-29; test: Cytotoxicity against human HT-29 cells at 40 uM incubated for 48 hrs by CCK-8 assay; type: cell-based; conditions: ht-29, 48 h
[3] = target: T1, Polypeptide N-acetylgalactosaminyltransferase 2 (Homo sapiens, UniProt Q10471); test: Inhibition of ppGalNAcT2 in human SW480 cells assessed as reduction in O-GalNAc glycosylation by measuring VVA lectin expression at 40 uM incubated for 48 hrs by Western blot analysis; type: cell-based
T1 sequence (Q10471 whole entry): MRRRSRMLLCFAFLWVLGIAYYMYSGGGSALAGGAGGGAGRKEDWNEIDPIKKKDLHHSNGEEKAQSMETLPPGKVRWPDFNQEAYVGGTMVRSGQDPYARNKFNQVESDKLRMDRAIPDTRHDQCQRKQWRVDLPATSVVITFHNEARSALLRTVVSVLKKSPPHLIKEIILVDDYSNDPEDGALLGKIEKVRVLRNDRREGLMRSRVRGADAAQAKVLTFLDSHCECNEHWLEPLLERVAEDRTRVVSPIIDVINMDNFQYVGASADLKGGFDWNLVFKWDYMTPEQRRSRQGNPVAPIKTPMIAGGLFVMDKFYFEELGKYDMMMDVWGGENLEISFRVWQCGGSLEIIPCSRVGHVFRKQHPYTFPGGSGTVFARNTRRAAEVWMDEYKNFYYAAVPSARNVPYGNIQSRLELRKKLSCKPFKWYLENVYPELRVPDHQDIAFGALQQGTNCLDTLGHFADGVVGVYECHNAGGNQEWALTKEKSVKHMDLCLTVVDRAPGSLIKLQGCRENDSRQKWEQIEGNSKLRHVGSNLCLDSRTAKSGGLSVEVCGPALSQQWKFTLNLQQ

[4] = system: HT-29; test: Effect on ppGalNAcT4 expression level in human HT-29 cells at 40 uM incubated for 48 hrs by Western blot analysis; type: ADME, cell-based; conditions: ht-29, 48 h
[5] = target: T1, Polypeptide N-acetylgalactosaminyltransferase 2; test: Binding affinity of human recombinant FLAG-tagged ppGalNAcT2 expressed in HEK293 cells assessed as association rate by SPR analysis
[6] = system: HT-29; test: Effect on ppGalNAcT12 expression level in human HT-29 cells at 40 uM incubated for 48 hrs by Q-PCR analysis; type: ADME, cell-based; conditions: ht-29, 48 h
[7] = target: T1, Polypeptide N-acetylgalactosaminyltransferase 2; test: Inhibition of ppGalNAcT2 in human HT-29 cells assessed as reduction in PDPN O-GalNAc glycosylation by at 40 uM incubated for 48 hrs by jacalin lectin based immunoprecipitation analysis; type: cell-based
[8] = system: HT-29; test: Reduction in PDPN protein expression in human HT-29 cells at 40 uM for 48 hrs by Western blot analysis; type: functional, cell-based
[9] = target: T1, Polypeptide N-acetylgalactosaminyltransferase 2; test: Inhibition of ppGalNAcT2 in human RKO cells assessed as reduction in O-GalNAc glycosylation by measuring VVA lectin expression at 40 uM incubated for 48 hrs by Western blot analysis; type: cell-based
[10] = system: HT-29; test: Effect on ppGalNAcT15 expression level in human HT-29 cells at 40 uM incubated for 48 hrs by Q-PCR analysis; type: ADME, cell-based; conditions: ht-29, 48 h
[11] = system: HT-29; test: Effect on ppGalNAcT2 expression level in human HT-29 cells at 40 uM incubated for 48 hrs by Q-PCR analysis; type: ADME, cell-based; conditions: ht-29, 48 h
[12] = system: HT-29; test: Effect on ppGalNAcT7 expression level in human HT-29 cells at 40 uM incubated for 48 hrs by Q-PCR analysis; type: ADME, cell-based; conditions: ht-29, 48 h
[13] = system: SW480; test: Antimigratory activity in human SW480 cells at 40 uM incubated for 48 hrs by crystal violet staining based method; type: functional, cell-based
[14] = system: HT-29; test: Effect on ppGalNAcT4 expression level in human HT-29 cells at 40 uM incubated for 48 hrs by Q-PCR analysis; type: ADME, cell-based; conditions: ht-29, 48 h
[15] = target: T1, Polypeptide N-acetylgalactosaminyltransferase 2; test: Inhibition of ppGalNAcT2 in human HT-29 cells assessed as reduction in O-GalNAc glycans by measuring PNA lectin expression at 20 to 60 uM incubated for 48 hrs by Western blot analysis; type: cell-based
[16] = target: T2, UDP-N-acetylglucosamine--peptide N-acetylglucosaminyltransferase 110 kDa subunit (Homo sapiens, UniProt O15294); test: Inhibition of catalytic activity of OGT (unknown origin) using EA2 peptide as substrate incubated for 30 mins by HPLC-based enzyme assay
T2 sequence (O15294 whole entry): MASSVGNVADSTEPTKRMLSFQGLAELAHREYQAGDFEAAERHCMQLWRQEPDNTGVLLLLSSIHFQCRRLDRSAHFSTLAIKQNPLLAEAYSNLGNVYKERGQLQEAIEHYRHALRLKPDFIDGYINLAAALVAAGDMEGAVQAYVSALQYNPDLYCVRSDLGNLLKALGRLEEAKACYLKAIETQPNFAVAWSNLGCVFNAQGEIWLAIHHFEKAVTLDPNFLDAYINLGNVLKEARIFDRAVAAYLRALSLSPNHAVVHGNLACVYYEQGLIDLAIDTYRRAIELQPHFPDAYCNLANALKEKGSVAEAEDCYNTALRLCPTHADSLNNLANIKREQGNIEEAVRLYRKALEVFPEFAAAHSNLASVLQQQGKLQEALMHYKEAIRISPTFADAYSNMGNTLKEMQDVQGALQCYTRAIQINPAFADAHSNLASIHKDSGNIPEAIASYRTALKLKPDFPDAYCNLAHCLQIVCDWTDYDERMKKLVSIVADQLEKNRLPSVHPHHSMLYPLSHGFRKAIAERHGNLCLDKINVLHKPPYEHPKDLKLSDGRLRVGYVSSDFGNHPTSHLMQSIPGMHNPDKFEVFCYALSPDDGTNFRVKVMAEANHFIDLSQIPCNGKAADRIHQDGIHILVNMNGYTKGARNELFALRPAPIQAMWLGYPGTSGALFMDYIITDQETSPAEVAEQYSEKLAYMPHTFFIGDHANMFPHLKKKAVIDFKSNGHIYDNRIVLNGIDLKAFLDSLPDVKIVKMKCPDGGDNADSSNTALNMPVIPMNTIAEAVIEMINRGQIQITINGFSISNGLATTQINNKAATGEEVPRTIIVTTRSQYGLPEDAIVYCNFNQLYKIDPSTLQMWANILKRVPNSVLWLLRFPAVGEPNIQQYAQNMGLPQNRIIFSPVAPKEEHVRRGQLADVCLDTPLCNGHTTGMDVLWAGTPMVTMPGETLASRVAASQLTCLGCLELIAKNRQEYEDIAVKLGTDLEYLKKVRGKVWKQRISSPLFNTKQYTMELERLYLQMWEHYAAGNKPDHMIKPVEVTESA

[17] = target: T1, Polypeptide N-acetylgalactosaminyltransferase 2; test: Inhibition of ppGalNAcT2 in human HT-29 cells assessed as reduction in O-GalNAc glycans by measuring VVA lectin expression at 20 to 60 uM incubated for 48 hrs by Western blot analysis; type: cell-based
[18] = system: HT-29; test: Effect on ppGalNAcT3 expression level in human HT-29 cells at 40 uM incubated for 48 hrs by Q-PCR analysis; type: ADME, cell-based; conditions: ht-29, 48 h

inhibition [3]: Active
kon [5]: 3532 M⁻¹ s⁻¹
inhibition [7]: Active
inhibition [9]: Active
inhibition [15]: Active
IC50 [16]: > 100 µM
inhibition [17]: Active
SMILES: O=c1oc2c(O)c(O)ccc2c2cc(O)c(O)cc12
Activity [1]: Active
Activity [2]: Non-Toxic
Activity [4]: Non-Toxic
Activity [6]: Non-Toxic
Activity [8]: Active
Activity [10]: Non-Toxic
Activity [11]: Non-Toxic
Activity [12]: Non-Toxic
Activity [13]: Active
Activity [14]: Non-Toxic
Activity [18]: Non-Toxic
